In patent US20070043105A1, “Preventive for cerebal stroke recurrence” (ASTELLAS PHARMA INC., priority 2003, published 2007):

Experiments:
[1] = system: stroke-prone spontaneously hypertensive rats (SHR-SP); assay: Blood pressure, heart beat and total cholesterol level in SHR-SP rats after primary stroke attack; format: in vivo, rat; conditions: administration groups (3 and 30 mg/kg/day), within 2 weeks after the primary cerebral stroke attack
[2] = system: stroke-prone spontaneously hypertensive rats (SHR-SP); assay: Cerebral stroke recurrence score (daily body weight change) after primary stroke attack in SHR-SP rats; format: in vivo, rat; conditions: vs control
Procedure: (§1) The dose was 3 and 30 mg/kg, and it was repeatedly orally administered once a day.
(§2) SHR-SP male rats (9-week age when bought, by Nippon SLC) were bred under a constant-temperature and constant-humidity condition. The feed was solid SP feed for breeding SHR-SP rats; and every rat was kept to freely drink tap water as automatically supplied thereto. The body weight of each rat was measured everyday, and the rats were checked for an cerebral stroke attack (Stroke, Vol. 20(9), pp. 1212-1218, 1989; Journal of Pharmacology & Experimental Therapeutics, Vol. 291(2), pp. 569-575, 1999). The cerebral stroke attack in the rats of this line is accompanied by neurologic symptoms such as paralysis or hemiplegia (European Journal of Pharmacology, Vol. 192 (1), pp. 165-167, 1991), and abnormal body weight change such as rapid body weight reduction. The abnormal body weight change may be considered to be caused by the deterred drinking and eating owing to the cerebral stroke attack (Brain Research, Vol. 452 (1-2), pp. 323-328, 1988; Stroke, Vol. 20(8), pp. 1089-1091, 1989; European Journal of Pharmacology, Vol. 192 (1), pp. 165-167, 1991).
(§3) A Steel test was used to the neurologic symptom and recurrence scores, and a Log-rank test was applied to the survival rate.

[3] = system: stroke-prone spontaneously hypertensive rats (SHR-SP); assay: Cerebral stroke recurrence-accompanied neurologic symptom score in SHR-SP rats; format: in vivo, rat
Text: Regarding the neurologic symptom, both the fore-legs and both the hind legs of a test case are checked for the paralysis and the activity depression as the items of the neurologic symptoms thereof, and they are scored depending on the degree of the symptoms. Concretely, according to a reference (European Journal of Pharmacology, 192, 165-167, 1991), they are normal state (score 0), light symptom (score 1), middle symptom (score 2) and heavy symptom (score 3); and the final data of an individual are the total of the scores of these items. The maximum score is 15.
as §1, §2
The rats were checked for their neurologic symptoms on the day the first stroke occurred and 7 and 14 days later by the modified method of Yamamoto (Brain Research, Vol. 452(1-2), pp. 323-328, 1988; Stroke, Vol. 20(8), pp. 1089-1091, 1989; European Journal of Pharmacology, Vol. 192(1), pp. 165-167, 1991). Both the fore-legs and both the hind legs of the rats were checked for the paralysis and the activity depression as the items of the neurologic symptoms thereof. […] The final data of the individual rat are the total of the scores of these items. The maximum score is 15.
as §3

eNOS = conditions: cited from earlier work
[4] = system: stroke-prone spontaneously hypertensive rats (SHR-SP); assay: Survival rate after onset of the stroke in SHR-SP rats; format: in vivo, rat; conditions: for survival rate: control 3/28 (10.7%)
Procedure: as §1, §2
Vehicle or atorvastatin was orally administered everyday, once a day from day of the first stroke to death.
as §3

[5] = system: hypertension cases or CHD-having cases; conditions: cited from earlier work
SHR-SP rats = conditions: administration before attack; cited from earlier work
[6] = 3 mg/kg/day p.o., day 14 after the primary cerebral stroke attack, Steel test
[7] = 30 mg/kg/day p.o., day 7 after the primary cerebral stroke attack
[8] = 30 mg/kg/day p.o., day 14 after the primary cerebral stroke attack, Steel test

CC(C)c1c(C(=O)Nc2ccccc2)c(-c2ccccc2)c(-c2ccc(F)cc2)n1CC[C@@H](O)C[C@@H](O)CC(=O)O [atorvastatin, (-)-(3R,5R)-7-[2-(4-fluorophenyl)-5-isopropyl-3-phenyl-4-phenylcarbamoyl-1H-pyrrol-1-yl]-3,5-dihydroxyheptanoic acid]
diastolic pressure vs control group [1]: no significant difference | heart beat vs control group [1]: no significant difference | mean blood pressure vs control group [1]: no significant difference | systolic pressure vs control group [1]: no significant difference | total cholesterol level vs control group [1]: no significant difference | cerebral stroke recurrence symptoms (recurrence score) [2, 6]: significant improvement | cerebral stroke recurrence symptoms (recurrence score) [2, 7]: improved symptoms | cerebral stroke recurrence symptoms (recurrence score) [2, 8]: significant improvement | neurologic symptoms (score) ([3]; 3 mg/kg/day p.o., day 7 after the primary cerebral stroke attack): improved | neurologic symptoms (score) [3, 6]: significant improvement | level of neurologic symptoms reached ([3]; 30 mg/kg administration group, day 14 after the primary cerebral stroke attack): restored nearly to the ordinary level | neurologic symptoms (score) [3, 7]: improved | neurologic symptoms (score) [3, 8]: significant improvement | eNOS activity (eNOS): increases eNOS activity | survival rate ([4]; 3 mg/kg/day p.o., day 35 after the primary cerebral stroke attack (6/29)): 20.7% | improvement of survival rate vs control, Log-rank test ([4]; 30 mg/kg/day p.o.): significant difference | survival rate ([4]; 30 mg/kg/day p.o., day 35 after the primary cerebral stroke attack (8/24)): 33.3% | primary preventive effect for cerebral stroke [5]: effective for preventing a primary cerebral stroke

COCc1c(C(C)C)nc(C(C)C)c(/C=C/[C@@H](O)C[C@@H](O)CC(=O)O)c1-c1ccc(F)cc1 [serivastatin]
prevention of cerebral stroke attack (SHR-SP rats): effective for prevention of cerebral stroke attack | survival rate (SHR-SP rats): effective for increasing a survival rate
